The values below come from US8247377B2, “Non-steroidal glucocorticoid inhibitors and their use in treating inflammation, allergy and auto-immune conditions” (Glaxo Group Limited, priority 2006, dated 2012).

What all share (type): cell-based
One test concerns NFκB. In words: NFκB agonist assay in A549 SPAP cells.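 For average maximum asymptote in the NFkB assay: maximum inhibition of the TNFα-induced NFκB-driven signal.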 The conditions noted are these: Homo sapiens; for Emax: A549, A549 SPAP cells, >85% = full agonist, ≧20% = partial or full agonist, read-out: average maximum asymptote in the NFkB assay; for IC50: A549 SPAP cells, TNFα 3.2 ng/ml, read-out: pIC50 for the NFkB assay (converted). The gist of the method: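 A549 cells stably carrying an ELAM/NFκB-driven SPAP reporter were pre-incubated 1 h at 37° C with compound, then stimulated with TNFα (3.2 ng/ml final) for 15 h. SPAP activity read colorimetrically with pNPP at 405 nm after ~1 h; pIC50 estimated from dose-response curves.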

The next test concerns MMTV promoter. In words: MMTV agonist assay in A549 MMTV cells. The conditions noted are these: Homo sapiens, A549, 6 h, >85% = full agonist, >20% and <85% = partial or efficacy selective agonist, read-out: average maximum asymptote in the MMTV agonist assay. The gist of the method:
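A549 cells stably carrying an MMTV promoter-driven renilla luciferase reporter were exposed to compound for 6 h at 37 °C in DMEM with 10% FCS and 25 mM HEPES. Luminescence read after renilla substrate addition; pEC50 and maximum asymptote estimated from dose-response curves.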

A further test concerns the target T1, progesterone receptor (Homo sapiens, UniProt P06401).
T1 construct: expressed in transfected cells; host or cells: CV-1 cells transduced with PRb-BacMam and MMTV-BacMam
T1 sequence (P06401 1-933): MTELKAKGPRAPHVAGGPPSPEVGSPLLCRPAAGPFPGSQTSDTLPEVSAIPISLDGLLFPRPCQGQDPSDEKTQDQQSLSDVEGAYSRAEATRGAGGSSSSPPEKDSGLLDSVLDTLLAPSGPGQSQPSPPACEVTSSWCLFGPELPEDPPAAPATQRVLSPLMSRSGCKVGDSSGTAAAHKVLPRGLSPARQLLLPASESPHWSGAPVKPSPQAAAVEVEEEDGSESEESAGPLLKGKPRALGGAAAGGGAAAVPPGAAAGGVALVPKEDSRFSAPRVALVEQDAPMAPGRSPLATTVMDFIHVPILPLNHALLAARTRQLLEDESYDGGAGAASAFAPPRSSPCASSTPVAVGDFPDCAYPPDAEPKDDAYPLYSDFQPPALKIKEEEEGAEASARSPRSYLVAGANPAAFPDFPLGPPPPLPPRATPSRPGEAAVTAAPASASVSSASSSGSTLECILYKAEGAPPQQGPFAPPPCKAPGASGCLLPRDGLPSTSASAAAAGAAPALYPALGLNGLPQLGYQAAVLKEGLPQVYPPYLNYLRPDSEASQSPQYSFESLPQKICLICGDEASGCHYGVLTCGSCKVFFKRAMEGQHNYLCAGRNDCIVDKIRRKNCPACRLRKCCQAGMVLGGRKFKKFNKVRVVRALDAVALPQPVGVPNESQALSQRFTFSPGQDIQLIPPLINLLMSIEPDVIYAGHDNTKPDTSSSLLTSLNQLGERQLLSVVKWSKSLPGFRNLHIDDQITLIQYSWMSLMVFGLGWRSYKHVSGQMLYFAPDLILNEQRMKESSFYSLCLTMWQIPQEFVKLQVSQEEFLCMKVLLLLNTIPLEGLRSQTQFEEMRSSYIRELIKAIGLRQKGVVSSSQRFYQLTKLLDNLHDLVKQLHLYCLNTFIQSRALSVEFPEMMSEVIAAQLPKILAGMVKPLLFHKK
In words: Assay for progesterone receptor activity (CV-1 cells, PRb-BacMam/MMTV-BacMam). The conditions noted are these: CV-1 cells transduced with PRb-BacMam and MMTV-BacMam; read-out: pEC50 progesterone receptor activity (converted). The gist of the method: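 CV-1 cells co-transduced with PRb-BacMam and MMTV-BacMam (10% each), seeded onto compounds in DMEM with 10% serum. After 24 h, luminescence was read with Steadylite. pEC50 values were estimated from dose-response curves.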

Structures are written as SMILES.

For `Nc1c(C(=O)NCC(O)(CN(CCF)C(=O)c2c(Cl)cccc2Cl)C(F)(F)F)cnn1-c1ccc(F)cc1` (racemic) [Example 28 (racemic), 5-amino-N-(2-{[[(2,6-dichlorophenyl)carbonyl](2-fluoroethyl)amino]methyl}-3,3,3-trifluoro-2-hydroxypropyl)-1-(4-fluorophenyl)-1H-pyrazole-4-carboxamide], in the test with NFκB, the Emax is above 85% and the IC50 was below 1000 nM. Besides, the Emax with MMTV promoter was above 85%. Also, at progesterone receptor, the EC50 is above 1000 nM.
Consider `Nc1c(C(=O)NCC(O)(CN(CCF)C(=O)c2c(Cl)cccc2Br)C(F)(F)F)cnn1-c1ccc(F)cc1` (racemic) [Example 30 (racemic), 5-amino-N-(2-{[[(2-bromo-6-chlorophenyl)carbonyl](2-fluoroethyl)amino]methyl}-3,3,3-trifluoro-2-hydroxypropyl)-1-(4-fluorophenyl)-1H-pyrazole-4-carboxamide], for which, in the test on NFκB, the Emax was above 85% and the IC50 was below 1000 nM. Further, in the test with MMTV promoter, the Emax was above 85%. In addition, on progesterone receptor, the EC50 is above 1000 nM.
On to `Nc1c(C(=O)NCC(O)(CN(CCF)C(=O)c2c(Cl)cccc2OC(F)F)C(F)(F)F)cnn1-c1ccc(F)cc1` (racemic) [Example 31 (racemic), 5-amino-N-(2-{[({2-chloro-6-[(difluoromethyl)oxy]phenyl}carbonyl)(2-fluoroethyl)amino]methyl}-3,3,3-trifluoro-2-hydroxypropyl)-1-(4-fluorophenyl)-1H-pyrazole-4-carboxamide], for which, in the test on NFκB, the Emax was above 85% and the IC50 was below 1000 nM. In addition, in the test with MMTV promoter, the Emax is above 85%. At progesterone receptor, the EC50 is above 1000 nM.
As for `CCN(CC(O)(CNC(=O)c1cnn(-c2ccc(F)c(F)c2)c1N)C(F)(F)F)C(=O)c1c(F)cccc1F` (racemic) [Example 33 (racemic), 5-amino-1-(3,4-difluorophenyl)-N-(2-{[[(2,6-difluorophenyl)carbonyl](ethyl)amino]methyl}-3,3,3-trifluoro-2-hydroxypropyl)-1H-pyrazole-4-carboxamide], in the test with NFκB, the Emax is above 85% and the IC50 is below 1000 nM. In addition, in the test with MMTV promoter, the Emax was above 85%. Moreover, at progesterone receptor, the EC50 was above 1000 nM.
In the case of `CCN(CC(O)(CNC(=O)c1cnn(-c2ccc(F)cc2F)c1N)C(F)(F)F)C(=O)c1c(F)cccc1F` (racemic) [Example 34 (racemic), 5-amino-1-(2,4-difluorophenyl)-N-(2-{[[(2,6-difluorophenyl)carbonyl](ethyl)amino]methyl}-3,3,3-trifluoro-2-hydroxypropyl)-1H-pyrazole-4-carboxamide], in the test with NFκB, the Emax was above 85% and the IC50 is below 1000 nM. In addition, in the test with MMTV promoter, the Emax is above 85%. The EC50 on progesterone receptor is above 1000 nM.
Regarding `CCN(CC(O)(CNC(=O)c1cnn(-c2cc(F)cc(F)c2)c1N)C(F)(F)F)C(=O)c1c(F)cccc1F` (racemic) [Example 35 (racemic), 5-amino-1-(3,5-difluorophenyl)-N-(2-{[[(2,6-difluorophenyl)carbonyl](ethyl)amino]methyl}-3,3,3-trifluoro-2-hydroxypropyl)-1H-pyrazole-4-carboxamide], the Emax in the test on NFκB and in the test with MMTV promoter was above 85% in each case. Further, in the test on NFκB, the IC50 is below 1000 nM. In addition, the EC50 on progesterone receptor was above 1000 nM.
Regarding `CCN(CC(O)(CNC(=O)c1cnn(-c2cc(F)ccc2F)c1N)C(F)(F)F)C(=O)c1c(F)cccc1F` (racemic) [Example 36 (racemic), 5-amino-1-(2,5-difluorophenyl)-N-(2-{[[(2,6-difluorophenyl)carbonyl](ethyl)amino]methyl}-3,3,3-trifluoro-2-hydroxypropyl)-1H-pyrazole-4-carboxamide], in the test with NFκB, the Emax was above 85% and the IC50 is below 1000 nM. For the same compound, in the test with MMTV promoter, the Emax is above 85%. The EC50 at progesterone receptor was above 1000 nM.
Consider `CCN(CC(O)(CNC(=O)c1cnn(-c2c(F)cccc2F)c1N)C(F)(F)F)C(=O)c1c(F)cccc1F` (racemic) [Example 37 (racemic), 5-amino-1-(2,6-difluorophenyl)-N-(2-{[[(2,6-difluorophenyl)carbonyl](ethyl)amino]methyl}-3,3,3-trifluoro-2-hydroxypropyl)-1H-pyrazole-4-carboxamide], for which the Emax with NFκB and in the test with MMTV promoter was above 85% in each case. Moreover, in the test with NFκB, the IC50 was below 1000 nM. Also, on progesterone receptor, the EC50 is above 1000 nM.
As to `CCN(CC(O)(CNC(=O)c1cnn(-c2cccc(F)c2)c1N)C(F)(F)F)C(=O)c1c(F)cccc1F` (racemic) [Example 38 (racemic), 5-amino-N-(2-{[[(2,6-difluorophenyl)carbonyl](ethyl)amino]methyl}-3,3,3-trifluoro-2-hydroxypropyl)-1-(3-fluorophenyl)-1H-pyrazole-4-carboxamide], in the test with NFκB, the Emax was above 85% and the IC50 was below 1000 nM. In addition, the Emax in the test with MMTV promoter was above 85%. Besides, the EC50 at progesterone receptor is above 1000 nM.
For `CCN(CC(O)(CNC(=O)c1cnn(-c2ccc(Cl)cc2)c1N)C(F)(F)F)C(=O)c1c(F)cccc1F` (racemic) [Example 39 (racemic), 5-amino-1-(4-chlorophenyl)-N-(2-{[[(2,6-difluorophenyl)carbonyl](ethyl)amino]methyl}-3,3,3-trifluoro-2-hydroxypropyl)-1H-pyrazole-4-carboxamide], in the test on NFκB, the Emax is above 85% and the IC50 is below 1000 nM. Further, the Emax in the test on MMTV promoter was above 85%. The EC50 at progesterone receptor is above 1000 nM.
On to `CCN(CC(O)(CNC(=O)c1cnn(-c2cccc(Cl)c2)c1N)C(F)(F)F)C(=O)c1c(F)cccc1F` (racemic) [Example 41 (racemic), 5-amino-1-(3-chlorophenyl)-N-(2-{[[(2,6-difluorophenyl)carbonyl](ethyl)amino]methyl}-3,3,3-trifluoro-2-hydroxypropyl)-1H-pyrazole-4-carboxamide], for which the Emax in the test on NFκB and in the test on MMTV promoter was above 85% in each case. Moreover, the IC50 in the test on NFκB is below 1000 nM. For the same compound, on progesterone receptor, the EC50 was above 1000 nM.
`CCN(CC(O)(CNC(=O)c1cnn(-c2ccccc2F)c1N)C(F)(F)F)C(=O)c1c(F)cccc1F` (racemic) [Example 42 (racemic), 5-amino-N-(2-{[[(2,6-difluorophenyl)carbonyl](ethyl)amino]methyl}-3,3,3-trifluoro-2-hydroxypropyl)-1-(2-fluorophenyl)-1H-pyrazole-4-carboxamide]: in the test with NFκB, the Emax is above 85% and the IC50 is below 1000 nM. The Emax in the test on MMTV promoter was above 85%. Moreover, the EC50 at progesterone receptor is above 1000 nM.
As for `Nc1c(C(=O)NCC(O)(CNC(=O)c2c(C(F)F)cccc2C(F)F)C(F)(F)F)cnn1-c1ccc(F)cc1` (racemic) [Example 43 (racemic), 5-Amino-N-{2-[({[2,6-bis(difluoromethyl)phenyl]carbonyl}amino)methyl]-3,3,3-trifluoro-2-hydroxypropyl}-1-(4-fluorophenyl)-1H-pyrazole-4-carboxamide], in the test with NFκB, the Emax is at least 20% and the IC50 was below 1000 nM. For the same compound, the Emax in the test on MMTV promoter lay in the range of 20 to 85%. For the same compound, the EC50 at progesterone receptor was above 1000 nM.
In the same order, the values of `Nc1c(C(=O)NCC(O)(CNC(=O)c2c(Br)cccc2C(F)(F)F)C(F)(F)F)cnn1-c1ccc(F)cc1` (racemic) [Example 45 (racemic), 5-Amino-N-{2-[({[2-bromo-6-(trifluoromethyl)phenyl]carbonyl}amino)methyl]-3,3,3-trifluoro-2-hydroxypropyl}-1-(4-fluorophenyl)-1H-pyrazole-4-carboxamide] are at least 20%, below 1000 nM, 20 to 85% and above 1000 nM.
